Experimental data reported in patent US20100204149A1, “USE OF OCTREOTIDE AS A THERAPEUTIC AGENT” (priority 2007, published 2010).

Test system: Streptococcus pneumoniae
Assay: Streptococcus pneumoniae assay
Format: cell-based
Details: peptide 10 micrograms per ml, read visually
Protocol: The antibacterial assay was conducted using clear, U-bottom 96-well microtiter plates. Cation-adjusted Mueller-Hinton Broth (MHB) was used for testing Streptococcus pneumoniae. The peptide of the invention (0.1 ml of each—10 micrograms per ml—) was dispensed into wells in duplicate. Then the wells were inoculated with 5×10^5 CFU/mL Streptococcus pneumoniae in 0.1 ml volume. For control purposes, each plate included 4 wells containing media without bacterial inoculum and 4 wells containing medium with inoculum but without peptide. The plates were incubated for 12 h at 37° C., and read visually 18-24 hours post-incubation. Growth control of Streptococcus pneumoniae was examined first to determine adequacy of media preparations and growth conditions. Acceptable growth is defined as ≧2 mm wide button of cells at the bottom of each sample well, or obvious turbidity in the culture supernatant. Test wells were examined and scored as positive/negative for activity. A positive score for activity is based on complete inhibition of macroscopic growth of the test Streptococcus pneumoniae.

C[C@@H](O)[C@@H]1NC(=O)[C@H](CCCCN)NC(=O)[C@@H](Cc2c[nH]c3ccccc23)NC(=O)[C@H](Cc2ccccc2)NC(=O)[C@@H](NC(=O)[C@H](N)Cc2ccccc2)CSSC[C@@H](C(=O)N[C@H](CO)[C@@H](C)O)NC1=O [Octreotide, H-D-Phe-Cys-Phe-D-Trp-Lys-Thr-Cys-L-threoninol]
% inhibition: 100.0%
